Assay results published in the CheMixHub viscosity set.
Values joined by “and” are separate entries in the source; they are usually repeats but may differ in a detail not shown here. Equal values may be shown once.

Assay: xn = mol fraction of the nth substance listed

CC#N + CO
Conditions	viscosity
298.15 K, 101 kPa, x1 = 0.0892	0.478 mPa·s
298.15 K, 101 kPa, x1 = 0.1871	0.431 mPa·s
298.15 K, 101 kPa, x1 = 0.2884	0.397 mPa·s
298.15 K, 101 kPa, x1 = 0.4054	0.365 mPa·s
298.15 K, 101 kPa, x1 = 0.4849	0.351 mPa·s
298.15 K, 101 kPa, x1 = 0.5981	0.339 mPa·s
298.15 K, 101 kPa, x1 = 0.6986	0.331 mPa·s
298.15 K, 101 kPa, x1 = 0.8078	0.327 mPa·s
298.15 K, 101 kPa, x1 = 0.9013	0.329 mPa·s
298.15 K, 101 kPa, x2 = 0.1219	0.331 mPa·s
298.15 K, 101 kPa, x2 = 0.178	0.334 mPa·s
298.15 K, 101 kPa, x2 = 0.2	0.334 mPa·s
298.15 K, 101 kPa, x2 = 0.216	0.329 mPa·s and 0.333 mPa·s
298.15 K, 101 kPa, x2 = 0.3487	0.334 mPa·s
298.15 K, 101 kPa, x2 = 0.378	0.342 mPa·s
298.15 K, 101 kPa, x2 = 0.394	0.343 mPa·s
298.15 K, 101 kPa, x2 = 0.4	0.343 mPa·s
298.15 K, 101 kPa, x2 = 0.412	0.345 mPa·s
298.15 K, 101 kPa, x2 = 0.577	0.369 mPa·s
298.15 K, 101 kPa, x2 = 0.6	0.373 mPa·s
298.15 K, 101 kPa, x2 = 0.6804	0.339 mPa·s
298.15 K, 101 kPa, x2 = 0.711	0.402 mPa·s
298.15 K, 101 kPa, x2 = 0.743	0.419 mPa·s
298.15 K, 101 kPa, x2 = 0.8	0.435 mPa·s
298.15 K, 101 kPa, x2 = 0.86	0.459 mPa·s
298.15 K, 101 kPa, x2 = 0.881	0.469 mPa·s
298.15 K, 101 kPa, x2 = 0.887	0.472 mPa·s
298.15 K, 101 kPa, x2 = 0.9	0.48 mPa·s
298.15 K, 101.33 kPa, x1 = 0.0495	0.509 mPa·s
298.15 K, 101.33 kPa, x1 = 0.0999	0.479 mPa·s
298.15 K, 101.33 kPa, x1 = 0.1494	0.455 mPa·s
298.15 K, 101.33 kPa, x1 = 0.1995	0.434 mPa·s
298.15 K, 101.33 kPa, x1 = 0.245	0.418 mPa·s
298.15 K, 101.33 kPa, x1 = 0.2998	0.4 mPa·s
298.15 K, 101.33 kPa, x1 = 0.3451	0.387 mPa·s
298.15 K, 101.33 kPa, x1 = 0.3997	0.374 mPa·s
298.15 K, 101.33 kPa, x1 = 0.4489	0.364 mPa·s
298.15 K, 101.33 kPa, x1 = 0.495	0.357 mPa·s
298.15 K, 101.33 kPa, x1 = 0.5496	0.349 mPa·s
298.15 K, 101.33 kPa, x1 = 0.5999	0.343 mPa·s
298.15 K, 101.33 kPa, x1 = 0.6494	0.34 mPa·s
298.15 K, 101.33 kPa, x1 = 0.6997	0.336 mPa·s
298.15 K, 101.33 kPa, x1 = 0.745	0.334 mPa·s
298.15 K, 101.33 kPa, x1 = 0.7995	0.333 mPa·s
298.15 K, 101.33 kPa, x1 = 0.8496	0.335 mPa·s
298.15 K, 101.33 kPa, x1 = 0.8998	0.338 mPa·s
298.15 K, 101.33 kPa, x1 = 0.95	0.34 mPa·s
303 K, 100 kPa, x1 = 0.0991	0.4985 mPa·s
303 K, 100 kPa, x1 = 0.2043	0.4812 mPa·s
303 K, 100 kPa, x1 = 0.316	0.4588 mPa·s
303 K, 100 kPa, x1 = 0.4039	0.4395 mPa·s
303 K, 100 kPa, x1 = 0.5003	0.4202 mPa·s
303 K, 100 kPa, x1 = 0.6063	0.4016 mPa·s
303 K, 100 kPa, x1 = 0.7402	0.3785 mPa·s
303 K, 100 kPa, x1 = 0.8688	0.3645 mPa·s
303.15 K, 101 kPa, x1 = 0.0892	0.423 mPa·s
303.15 K, 101 kPa, x1 = 0.1871	0.385 mPa·s
303.15 K, 101 kPa, x1 = 0.2884	0.357 mPa·s
303.15 K, 101 kPa, x1 = 0.4054	0.327 mPa·s
